The record followed here is ChEMBL document CHEMBL1201862, “PubChem BioAssay data set” (2004).

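How tested: cells in 96-well plates exposed to compound for 48 hours at five concentrations. Here, GI50 denotes the concentration required for 50% inhibition of growth.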 The source made the active and inactive calls. No stated cut-off is given here; in the data, active = GI50 up to about 1.1 µM and inactive = higher.

What all share (assay): NCI-60 cell line screen, 48 h
Assay [1] deals with 786-0.
The test system of assay [2] is ACHN.
Assay [3] deals with BT-549.
Assay [4] relates to COLO 205.
Assay [5] relates to HCC 2998.
For assay [6], the system named is HCT-15.
In assay [7] the test system is Hs-578T.
Assay [8] has as its system K562.
In assay [9] the test system is KM12.
Assay [10] concerns LOX IMVI.
The subject of assay [11] is MDA-MB-435.
The subject of assay [12] is Malme-3M.
For assay [13], the system named is NCI-H226.
In assay [14] the test system is NCI-H23.
For assay [15], the system named is OVCAR-5.
Assay [16] deals with RPMI-8226.
Assay [17] has as its system SK-MEL-28.
Assay [18] concerns SK-MEL-5.
Assay [19] relates to UACC-62.

As for `Nc1nc(SCc2ccccc2Cl)cc(C(=O)O)n1`, the GI50 in assay [1] is 79.1 µM (inactive); in assay [2], 91.4 µM (inactive); in [3], 97.9 µM (inactive); in assay [4], 39.4 µM (inactive); in assay [5], 59.2 µM (inactive); in assay [6] it was 41.9 µM. For the same compound, the GI50 was 49.1 µM (inactive) in [7]; 46.5 µM (inactive) in assay [8]; 55.5 µM (inactive) in assay [9]; 44.4 µM (inactive) in assay [10]; 73.1 µM (inactive) in assay [11]; 39.4 µM (inactive) in assay [12]. For the same compound, the GI50 in [13] was 49.1 µM (inactive); in [14], 57.4 µM (inactive); in assay [15] it was 78 µM (inactive); in [16] it was 54.1 µM (inactive); in assay [17], 87.3 µM (inactive); in assay [18], 76.9 µM (inactive). Further, in assay [19], the GI50 is > 100 µM (inactive).

Consider `Oc1nc(S)nc2c1CN(CCCN1CCOCC1)CN2`, for which the GI50 is 40.4 µM (inactive) in [1]; 29.2 µM (inactive) in [2]; 75.2 µM (inactive) in assay [3]; 18.3 µM (inactive) in [4]; 21.9 µM (inactive) in assay [5]; 32 µM in assay [6]. For the same compound, the GI50 is > 100 µM (inactive) in assay [7]; 67.9 µM (inactive) in assay [8]; 28.2 µM (inactive) in assay [9]; 24.7 µM (inactive) in [10]; 22.5 µM (inactive) in assay [11]; 19.7 µM (inactive) in [12]. Besides, the GI50 in [13] was > 100 µM (inactive); in assay [14] it was 22.4 µM (inactive); in [15], > 100 µM (inactive); in assay [16], 26.9 µM (inactive); in [17] it was > 100 µM (inactive); in assay [18] it was 31 µM (inactive). Also, the GI50 in assay [19] is 19.7 µM (inactive).

Regarding `COc1cc2c(cc1OCCN1C(=O)c3cccc4cccc(c34)C1=O)N=C[C@@H]1CCCN1C2=O`, the GI50 in assay [1] was 7.96 µM (inactive); in [2], 8.07 µM (inactive); in assay [3], 9.82 µM (inactive); in assay [4], 8.32 µM (inactive); in [5], 7.74 µM (inactive); in [6], 9.31 µM. Moreover, the GI50 in assay [7] is 7.8 µM (inactive); in assay [8] it was 1.15 µM (inactive); in [9], 14.3 µM (inactive); in assay [10], 6.04 µM (inactive); in assay [11] it was 10.7 µM (inactive); in assay [12] it was 8.02 µM (inactive). The GI50 in assay [13] was 7.26 µM (inactive); in [14] it was 10.4 µM (inactive); in assay [15], 10.9 µM (inactive); in assay [16], 9.27 µM (inactive); in [17], 8.95 µM (inactive); in assay [18], 8.61 µM (inactive). Moreover, the GI50 in assay [19] is 7.93 µM (inactive).

Regarding `COc1ccc(OC)c([N+](=O)[O-])c1-c1nc2sc(Cl)cn2c1/C=N/N=C(N)N`, the GI50 is 42.9 µM (inactive) in assay [1]; 28.6 µM (inactive) in [2]; 16.8 µM (inactive) in assay [3]; 15.3 µM (inactive) in assay [4]; 12.7 µM (inactive) in [5]; 41.2 µM in assay [6]. Moreover, the GI50 in [7] is 19.1 µM (inactive); in assay [8] it was 7.53 µM (inactive); in assay [9] it was 15.4 µM (inactive); in assay [10], 25 µM (inactive); in assay [11], 17.5 µM (inactive); in assay [12], 22.5 µM (inactive). Further, the GI50 in [13] was 18.2 µM (inactive); in [14], 26.4 µM (inactive); in [15] it was 25.9 µM (inactive); in assay [16], 26.9 µM (inactive); in [17], 13.9 µM (inactive); in assay [18], 14.4 µM (inactive). Further, the GI50 in assay [19] is 13.3 µM (inactive).

For the compound `N=C(N)NS(=O)(=O)c1ccc(NNC(=O)c2cccc3c(O)c4ccccc4nc23)cc1`, the GI50 in assay [1] was 38.4 µM (inactive); in assay [2], 21.1 µM (inactive); in assay [3], 21.7 µM (inactive); in [4], 24.7 µM (inactive); in [5], 18.1 µM (inactive); in assay [6], 23 µM. Besides, the GI50 is 63.2 µM (inactive) in [7]; 24 µM (inactive) in [8]; 21.8 µM (inactive) in assay [9]; 24.5 µM (inactive) in assay [10]; 25.5 µM (inactive) in [11]; 19.6 µM (inactive) in [12]. Moreover, the GI50 in assay [13] is 25.5 µM (inactive); in assay [14], 31.2 µM (inactive); in [15], 42.6 µM (inactive); in [16], 37.2 µM (inactive); in assay [17] it was 26.2 µM (inactive); in [18], 17.1 µM (inactive). Besides, the GI50 in assay [19] is 30.3 µM (inactive).

As for `COc1ccc(C(c2c[nH]c3ccc(Br)cc23)c2c[nH]c3ccc(Br)cc23)cc1`, the GI50 is 0.215 µM (active) in assay [1]; 0.24 µM (active) in [2]; 1.51 µM (inactive) in assay [3]; 0.17 µM (active) in assay [4]; 0.181 µM (active) in assay [5]; 0.214 µM in assay [6]. Also, the GI50 in assay [7] is 0.575 µM (active); in [8], 0.167 µM (active); in [9], 0.197 µM (active); in assay [10] it was 0.137 µM (active); in assay [11] it was 0.172 µM (active); in assay [12], 0.811 µM (active). Also, the GI50 in [13] is 0.938 µM (active); in assay [14], 0.367 µM (active); in assay [15], 0.385 µM (active); in [16] it was 0.175 µM (active); in assay [17], 0.303 µM (active); in [18], 0.359 µM (active). The GI50 in assay [19] was 0.218 µM (active).

Take `CN1CCN(C(=S)N(C)C(=O)c2ccc(Cl)cc2)CC1`: the GI50 is > 100 µM (inactive) in [1]; 0.132 µM (active) in assay [2]; > 100 µM (inactive) in assay [3]; > 100 µM (inactive) in assay [4]; > 100 µM (inactive) in assay [5]; greater than 100 µM in [6]. For the same compound, the GI50 in [7], in assay [8], in [9], in assay [10], in assay [11] and in [12] was > 100 µM (inactive) in each case. The GI50 in [13], in assay [14], in assay [15], in assay [16], in [17] and in assay [18] was > 100 µM (inactive) each time. Also, the GI50 in assay [19] was > 100 µM (inactive).

For `Nc1c(C(=O)O)c2ccc([N+](=O)[O-])cc2c(=O)n1-c1nc2ccccc2s1`, the GI50 was > 100 µM (inactive) in [1]; > 100 µM (inactive) in assay [2]; > 100 µM (inactive) in assay [3]; > 100 µM (inactive) in assay [4]; > 100 µM (inactive) in assay [5]; greater than 100 µM in assay [6]. For the same compound, the GI50 in assay [7], in assay [8], in assay [9], in assay [10], in [11] and in assay [12] was > 100 µM (inactive) in each case. Also, the GI50 in [13], in assay [14], in [15], in assay [16], in [17] and in assay [18] was > 100 µM (inactive) in each case. The GI50 in [19] was > 100 µM (inactive).

Regarding `COc1ccc(Oc2nc3cc(C(F)(F)F)ccc3nc2C(C)C)cc1`, the GI50 in assay [1] was 36 µM (inactive); in [2], 26.2 µM (inactive); in assay [3], 22.4 µM (inactive); in [4], 16 µM (inactive); in assay [5], 20.1 µM (inactive); in assay [6] it was 23.8 µM. Moreover, the GI50 in [7] was 31.6 µM (inactive); in assay [8], 24.6 µM (inactive); in [9], 31.6 µM (inactive); in [10], 15.3 µM (inactive); in [11] it was 30.1 µM (inactive); in assay [12], 24.7 µM (inactive). The GI50 in assay [13] was 21 µM (inactive); in assay [14], 21 µM (inactive); in assay [15], 24.9 µM (inactive); in assay [16], 19.4 µM (inactive); in [17], 48 µM (inactive); in [18], 22.2 µM (inactive). The GI50 in [19] was 28.2 µM (inactive).

`CCOC(=O)c1sc2nc(SC)nc3c2c1NCN3c1ccc(F)c(F)c1`: the GI50 in assay [1] is 4.82 µM (inactive); in assay [2], 6.97 µM (inactive); in assay [3] it was 6.79 µM (inactive); in assay [4], > 100 µM (inactive); in assay [5], > 36.1 µM (inactive); in [6] it was 12.4 µM. Further, the GI50 in assay [7] was 4.28 µM (inactive); in assay [8], > 100 µM (inactive); in assay [9], 10.7 µM (inactive); in [10], 6.59 µM (inactive); in [11] it was 6.81 µM (inactive); in assay [12] it was 7.59 µM (inactive). The GI50 in assay [13] is 29.9 µM (inactive); in assay [14], 14.6 µM (inactive); in [15] it was > 100 µM (inactive); in assay [16], 9.93 µM (inactive); in assay [17], 23.7 µM (inactive); in [18] it was > 71.9 µM (inactive). Also, in assay [19], the GI50 was > 52.4 µM (inactive).
